Source: the NIST ThermoML archive (doi:10.1016/j.jct.2012.11.007)

Assay: mn = molality of the nth substance listed, in mol/kg
Conditions: 101 kPa, Liquid; for mass density: Vibrating tube method; for speed of sound: Pulse-echo method

CCNC(=O)NCC [1,3-diethylurea] + O
Conditions | mass density, 288.15 K [kg/m3] | mass density, 293.15 K [kg/m3] | mass density, 298.15 K [kg/m3] | mass density, 303.15 K [kg/m3] | mass density, 308.15 K [kg/m3] | speed of sound, 298.15 K [m/s]
m1 = 0.06282 | 999.298 | 998.383 | 997.207 | 995.788 | 994.155 | 1501.8
m1 = 0.1269 | 999.524 | 998.589 | 997.392 | 995.959 | 994.306 | 1507
m1 = 0.1909 | 999.768 | 998.812 | 997.588 | 996.14 | 994.468 | 1512.1
m1 = 0.2561 | 1000.03 | 999.043 | 997.793 | 996.313 | 994.634 | 1517.2
m1 = 0.3224 | 1000.31 | 999.289 | 998.012 | 996.517 | 994.82 | 1522.3

CNC(=O)NC [1,3-dimethylurea] + O
Conditions | mass density, 288.15 K [kg/m3] | mass density, 293.15 K [kg/m3] | mass density, 298.15 K [kg/m3] | mass density, 303.15 K [kg/m3] | mass density, 308.15 K [kg/m3] | speed of sound, 298.15 K [m/s]
m1 = 0.06095 | 999.619 | 998.707 | 997.534 | 996.121 | 994.493 | 1499.8
m1 = 0.1226 | 1000.15 | 999.227 | 998.04 | 996.616 | 994.975 | 1503
m1 = 0.1846 | 1000.69 | 999.75 | 998.549 | 997.113 | 995.461 | 1506.1
m1 = 0.247 | 1001.24 | 1000.28 | 999.063 | 997.613 | 995.947 | 1509.2
m1 = 0.3099 | 1001.79 | 1000.82 | 999.585 | 998.121 | 996.442 | 1512.3

CCCCNC(N)=O [N-butylurea] + O
Conditions | mass density, 288.15 K [kg/m3] | mass density, 293.15 K [kg/m3] | mass density, 298.15 K [kg/m3] | mass density, 303.15 K [kg/m3] | mass density, 308.15 K [kg/m3] | speed of sound, 298.15 K [m/s]
m1 = 0.05745 | 999.477 | 998.55 | 997.366 | 995.939 | 994.3 | 1501.5
m1 = 0.1154 | 999.871 | 998.918 | 997.706 | 996.251 | 994.591 | 1506.3
m1 = 0.173 | 1000.27 | 999.281 | 998.053 | 996.57 | 994.872 | 1511.2
m1 = 0.2305 | 1000.68 | 999.67 | 998.404 | 996.892 | 995.175 | 1516
m1 = 0.2873 | 1001.11 | 1000.06 | 998.771 | 997.219 | 995.477 | 1520.9
